Measured values published in patent US20230089073A1 (Carmot Therapeutics, Inc., priority 2021, published 2023).

Biological target: T1, human GLP-1 receptor (Homo sapiens, UniProt P43220)
T1 construct: expressed in transfected cells
Assay: GLP-1R cAMP Assay
Format: cell-based
Details: cAMP accumulation in CHO cells stably overexpressing the human GLP-1 receptor; 30 min treatment; HitHunter cAMP kit; read-out: EC50
Procedure, shortened: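 CHO cells stably overexpressing human GLP-1R, 10,000 cells/well, treated with compound in 20-point dose response in triplicate for 30 min. cAMP accumulation read by enzyme-complementation luminescence after lysis and overnight incubation; dose-response curves fitted.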

T1 sequence (P43220 24-463): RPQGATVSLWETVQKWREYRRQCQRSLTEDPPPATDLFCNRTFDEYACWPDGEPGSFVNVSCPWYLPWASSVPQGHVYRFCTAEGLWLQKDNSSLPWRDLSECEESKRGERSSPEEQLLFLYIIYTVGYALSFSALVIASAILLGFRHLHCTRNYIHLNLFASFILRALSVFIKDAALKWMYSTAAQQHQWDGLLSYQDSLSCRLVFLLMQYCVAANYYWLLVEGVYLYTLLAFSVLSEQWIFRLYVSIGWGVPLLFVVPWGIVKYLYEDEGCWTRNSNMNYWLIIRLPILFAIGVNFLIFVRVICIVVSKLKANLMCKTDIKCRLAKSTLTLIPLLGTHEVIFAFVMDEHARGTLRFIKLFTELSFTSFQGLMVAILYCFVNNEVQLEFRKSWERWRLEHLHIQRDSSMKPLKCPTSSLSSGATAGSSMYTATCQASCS

| SMILES | EC50 [nM] |
| --- | --- |
| N#Cc1ccc(OCc2nccc(O[C@H]3C[C@H]4C[C@@H]3CN4Cc3nc4ccc(C(=O)O)cc4n3C[C@@H]3CCO3)n2)c(F)c1 [Compound 507, 2-{[(1R,4R,5S)-5-({2-[(4-cyano-2-fluorophenoxy)methyl]pyrimidin-4-yl}oxy)-2-azabicyclo[2.2.1]heptan-2-yl]methyl}-1-{[(2S)-oxetan-2-yl]methyl}-1H-1,3-benzodiazole-6-carboxylic acid] | < 50 |
| N#Cc1cc(C2CC2)ccc1OCc1nccc(OC2CCN(Cc3nc4c(F)cc(C(=O)O)cc4n3C[C@@H]3CCO3)CC2)n1 [Compound 508, (S)-2-((4-((2-((2-cyano-4-cyclopropylphenoxy)methyl)pyrimidin-4-yl)oxy)piperidin-1-yl)methyl)-4-fluoro-1-(oxetan-2-ylmethyl)-1H-benzo[d]imidazole-6-carboxylic acid] | < 50 |
| C[C@H]1C[C@@H](Oc2ccnc(COc3ccc(C4CC4)cc3C#N)n2)CCN1Cc1nc2c(F)cc(C(=O)O)cc2n1C[C@@H]1CCO1 [Compound 509, 2-(((2S,4S)-4-((2-((2-cyano-4-cyclopropylphenoxy)methyl)pyrimidin-4-yl)oxy)-2-methylpiperidin-1-yl)methyl)-4-fluoro-1-(((S)-oxetan-2-yl)methyl)-1H-benzo[d]imidazole-6-carboxylic acid] | < 50 |
| O=C(O)c1cc(F)c2nc(CN3CCC(N(CC4CC4)c4ccnc(COc5ccc(Cl)cc5F)n4)CC3)n(C[C@@H]3CCO3)c2c1 [Compound 511, 2-{[4-({2-[(4-chloro-2-fluorophenoxy)methyl]pyrimidin-4-yl}(cyclopropylmethyl)amino)piperidin-1-yl]methyl}-4-fluoro-1-{[(2S)-oxetan-2-yl]methyl}-1H-1,3-benzodiazole-6-carboxylic acid] | < 50 |
| C[C@H]1C[C@@H](Oc2ccnc(COc3ccc(F)cc3F)n2)CCN1Cc1nc2ncc(C(=O)O)cc2n1C[C@@H]1CCO1 [Compound 512, 2-{[(2S,4S)-4-({2-[(2,4-difluorophenoxy)methyl]pyrimidin-4-yl}oxy)-2-methylpiperidin-1-yl]methyl}-1-{[(2S)-oxetan-2-yl]methyl}-1H-imidazo[4,5-b]pyridine-6-carboxylic acid] | > 500 |
| C[C@H]1C[C@@H](Oc2ccnc(COc3ccc(C#N)cc3F)n2)CCN1Cc1nc2ncc(C(=O)O)cc2n1C[C@@H]1CCO1 [Compound 513, 2-{[(2S,4S)-4-({2-[(4-cyano-2-fluorophenoxy)methyl]pyrimidin-4-yl}oxy)-2-methylpiperidin-1-yl]methyl}-1-{[(2S)-oxetan-2-yl]methyl}-1H-imidazo[4,5-b]pyridine-6-carboxylic acid] | < 50 |
| N#Cc1ccc(Oc2cccc(C(=O)N3CCN(Cc4nc5ccc(C(=O)O)cc5n4C[C@@H]4CCO4)CC3)c2)c(F)c1 [Example 10, (S)-2-((4-(3-(4-Cyano-2-fluorophenoxy)benzoyl)piperazin-1-yl)methyl)-1-(oxetan-2-ylmethyl)-1H-benzo[d]imidazole-6-carboxylic acid] | > 500 |
| Cc1ccccc1Oc1cccc(C(=O)N2CCN(Cc3nc4ccc(C(=O)O)cc4n3C[C@@H]3CCO3)CC2)c1 [Example 14, (S)-1-(Oxetan-2-ylmethyl)-2-((4-(3-(o-tolyloxy)benzoyl)piperazin-1-yl)methyl)-1H-benzo[d]imidazole-6-carboxylic acid] | > 500 |
| Cc1c(Cl)cccc1OCc1ccc(C(=O)N2CCN(Cc3nc4ccc(C(=O)O)cc4n3C[C@@H]3CCO3)CC2)o1 [Example 19, (S)-2-((4-(5-((3-Chloro-2-methylphenoxy)methyl)furan-2-carbonyl)piperazin-1-yl)methyl)-1-(oxetan-2-ylmethyl)-1H-benzo[d]imidazole-6-carboxylic acid] | 50 to 500 |
| O=C(O)c1ccc2nc(CN3CCN(Cc4ccc(COc5ccccc5)o4)CC3)n(C[C@@H]3CCO3)c2c1 [Example 20, (S)-1-(Oxetan-2-ylmethyl)-2-((4-((5-(phenoxymethyl)furan-2-yl)methyl)piperazin-1-yl)methyl)-1H-benzo[d]imidazole-6-carboxylic acid] | > 500 |

Second part, the compound after the results:

| EC50 [nM] | SMILES |
| --- | --- |
| < 50 | N#Cc1cc(F)c(F)cc1OCc1nccc(OC2CCN(Cc3nc4ccc(C(=O)O)cc4n3C[C@@H]3CCO3)CC2)n1 [Compound 504, 2-{[4-({2-[(2-cyano-4,5-difluorophenoxy)methyl]pyrimidin-4-yl}oxy)piperidin-1-yl]methyl}-1-{[(2S)-oxetan-2-yl]methyl}-1H-1,3-benzodiazole-6-carboxylic acid] |
| < 50 | N#Cc1cc(F)c(F)cc1OCc1nccc(OC2CCN(Cc3nc4c(F)cc(C(=O)O)cc4n3C[C@@H]3CCO3)CC2)n1 [Compound 505, 2-{[4-({2-[(2-cyano-4,5-difluorophenoxy)methyl]pyrimidin-4-yl}oxy)piperidin-1-yl]methyl}-4-fluoro-1-{[(2S)-oxetan-2-yl]methyl}-1H-1,3-benzodiazole-6-carboxylic acid] |
| < 50 | N#Cc1ccc(OCc2nccc(O[C@@H]3C[C@@H]4C[C@H]3CN4Cc3nc4ccc(C(=O)O)cc4n3C[C@@H]3CCO3)n2)c(F)c1 [Compound 506, 2-{[(1S,4S,5R)-5-({2-[(4-cyano-2-fluorophenoxy)methyl]pyrimidin-4-yl}oxy)-2-azabicyclo[2.2.1]heptan-2-yl]methyl}-1-{[(2S)-oxetan-2-yl]methyl}-1H-1,3-benzodiazole-6-carboxylic acid] |
| < 50 | C[C@H]1C[C@@H](Oc2ccnc(COc3ccc(C4CC4)cc3C#N)n2)CCN1Cc1nc2ccc(C(=O)O)cc2n1C[C@@H]1CCO1 [Compound 510, 2-(((2S,4S)-4-((2-((2-cyano-4-cyclopropylphenoxy)methyl)pyrimidin-4-yl)oxy)-2-methylpiperidin-1-yl)methyl)-1-(((S)-oxetan-2-yl)methyl)-1H-benzo[d]imidazole-6-carboxylic acid] |
| < 50 | C[C@H]1C[C@@H](Oc2ccnc(COc3cc(F)c(F)cc3F)n2)CCN1Cc1nc2ccc(C(=O)O)cc2n1C[C@@H]1CCO1 [Compound 514, 2-{[(2S,4S)-2-methyl-4-({2-[(2,4,5-trifluorophenoxy)methyl]pyrimidin-4-yl}oxy)piperidin-1-yl]methyl}-1-{[(2S)-oxetan-2-yl]methyl}-1H-1,3-benzodiazole-6-carboxylic acid] |
| < 50 | C[C@H]1C[C@@H](Oc2ccnc(COc3ccc(C#N)cc3F)n2)CCN1Cc1nc2ccc(C(=O)O)cc2n1C[C@H]1CCOC1 [Compound 515, 2-{[(2S,4S)-4-({2-[(4-cyano-2-fluorophenoxy)methyl]pyrimidin-4-yl}oxy)-2-methylpiperidin-1-yl]methyl}-1-{[(3R)-oxolan-3-yl]methyl}-1H-1,3-benzodiazole-6-carboxylic acid] |
| 50 to 500 | CN(C)c1cc(C(=O)N2CCN(Cc3nc4ccc(C(=O)O)cc4n3C[C@@H]3CCO3)CC2)ncn1 [Example 1, (S)-2-((4-(6-(Dimethylamino)pyrimidine-4-carbonyl)piperazin-1-yl)methyl)-1-(oxetan-2-ylmethyl)-1H-benzo[d]imidazole-6-carboxylic acid] |
| > 500 | O=C(O)c1ccc2nc(CN3CCN(C(=O)c4cccc(Oc5ccc(C(F)(F)F)cc5Cl)c4)CC3)n(C[C@@H]3CCO3)c2c1 [Example 2, (S)-2-((4-(3-(2-Chloro-4-(trifluoromethyl)phenoxy)benzoyl)piperazin-1-yl)methyl)-1-(oxetan-2-ylmethyl)-1H-benzo[d]imidazole-6-carboxylic acid] |
